Measured values published in patent publication US9994587B2, “HIV protease inhibitors” (priority 2014, dated 2018).

Target: T1, wildtype HIV-1 protease (Human immunodeficiency virus type 1 group M subtype B, UniProt P04585)
T1 construct: preincubated with the HIV-1 protease (wild type) enzyme in assay buffer; made in house; host or cells: Escherichia coli
Experiment: Assay for inhibition of microbial expressed HIV protease (Pepcleav)
Assay type: biochemical
Settings: wild type HIV-1 protease 20 pM, peptide substrate 400 micromolar, pH 5.5; mean of at least two independent experiments
Outline: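 E. coli-expressed enzyme preincubated with inhibitor 30 min at room temperature in 50 mM sodium acetate pH 5.5, 100 mM NaCl, 0.1% BSA, then 400 micromolar peptide substrate added with 20 picomolar protease (final), 1 h at 30° C. Product quantified by LC-MS/MS peak area after formic acid/indinavir quench.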

Row | Compound | IC50 [nM]
1 | COC(=O)N[C@H](C(=O)Nc1ccccc1CC[C@@H]1CNC[C@@H](COCc2ccc(Cl)cc2)O1)C(c1ccccc1)c1ccccc1 [Example 59, methyl N-[(1S)-1-benzhydryl-2-[[2-[2-[(2R,6S)-6-[(4-chlorophenyl)methoxymethyl]morpholin-2-yl]ethyl]phenyl]amino]-2-oxo-ethyl]carbamate] | 62
2 | COC(=O)N[C@H](C(=O)Nc1ccccc1CC[C@@H]1CNC[C@@H](/C=C/c2ccc(Cl)cc2)O1)C(c1ccccc1)c1ccccc1 [Example 60, N-[2-(2-{(2R,6R)-6-[(E)-2-(4-chlorophenyl)ethenyl]morpholin-2-yl}ethyl)phenyl]-Nα-(methoxycarbonyl)-β-phenyl-L-phenylalaniamide] | 19
3 | COC(=O)N[C@H](C(=O)Nc1ccccc1CC[C@@H]1CNC[C@@H](/C=C/c2ccc(S(C)(=O)=O)cc2)O1)C(c1ccccc1)c1ccccc1 [Example 61, N-α-(methoxycarbonyl)-N-(2-{2-[(2R,6R)-6-{(E)-2-[4-(methylsulfonyl)phenyl]ethenyl}morpholin-2-yl]ethyl}phenyl)-β-phenyl-L-phenylalaninamide] | 5.9
4 | COC(=O)N[C@H](C(=O)Nc1ccccc1CC[C@@H]1CNC[C@@H](CCc2ccc(C#N)cc2)O1)C(c1ccccc1)c1ccccc1 [Example 63, N-[2-(2-{(2R,6R)-6-[2-(4-cyanophenyl)ethyl]morpholin-2-yl}ethyl)phenyl]-N-α-(methoxycarbonyl)-β-phenyl-L-phenylalaninamide] | 8.8
5 | COC(=O)N[C@H](C(=O)Nc1ccccc1CC[C@@H]1CNC[C@@H](CCOc2ccc(C#N)cc2)O1)C(c1ccccc1)c1ccccc1 [Example 64, N-[2-(2-{(2R,6R)-6-[2-(4-cyanophenoxy)ethyl]morpholin-2-yl}ethyl)phenyl]-Nα-(methoxycarbonyl)-β-phenyl-L-phenylalaninamide] | 28
6 | COC(=O)N[C@H](C(=O)Nc1ccccc1CC[C@@H]1CNC[C@@H](C(F)(F)Cc2ccc(Br)cc2)O1)C(c1ccccc1)c1ccccc1 [Example 65, N-[2-(2-{(2R,6S)-6-[2-(4-bromophenyl)-1,1-difluoroethyl]morpholin-2-yl}ethyl)phenyl]-Nα-(methoxycarbonyl)-β-phenyl-L-phenylalaninamide] | 50
7 | COC(=O)N[C@H](C(=O)Nc1ccccc1CC[C@@H]1CNC[C@@H](CSc2ccc(Cl)cc2)O1)[C@@H](c1ccccc1)c1cccnc1 [Example 66, (βS)—N-(2-{2-[(2R,6S)-6-{[(4-chlorophenyl)sulfanyl]methyl}morpholin-2-yl]ethyl}phenyl)-Nα-(methoxycarbonyl)-β-pyridin-3-yl-L-phenylalaninamide] | 0.2
8 | COC(=O)N[C@H](C(=O)Nc1ccccc1CC[C@@H]1CNC[C@@H](CSc2ccc(Cl)cc2)O1)[C@@H](c1ccccc1)c1c[nH]c2ncccc12 [Example 67, (βS)-N-(2-{2-[(2R,6S)-6-{[(4-chlorophenyl)sulfanyl]methyl}morpholin-2-yl]ethyl}phenyl)-Nα-(methoxycarbonyl)-β-1H-pyrrolo[2,3-b]pyridin-3-yl-L-phenylalaninamide] | 0.11
9 | COC(=O)N[C@H](C(=O)Nc1ccccc1CC[C@@H]1CNC[C@@H](CSc2ccc(Cl)cc2)O1)[C@@H](c1ccccc1)c1ccnc2ccccc12 [Example 68, methyl[(2S,3S)-1-[(2-{2-[(2R,6S)-6-{[(4-chlorophenyl)sulfanyl]methyl}morpholin-2-yl]ethyl}phenyl)amino]-1-oxo-3-phenyl-3-(quinolin-4-yl)propan-2-yl]carbamate] | 0.03
10 | COC(=O)N[C@H](C(=O)Nc1ccccc1CC[C@@H]1CNC[C@@H](CSc2ccc(Cl)cc2)O1)[C@H](c1ccccc1)c1ccncc1 [Example 69, (βR)-N-(2-{2-[(2R,6S)-6-{[(4-chlorophenyl)sulfanyl]methyl}morpholin-2-yl]ethyl}phenyl)-Nα-(methoxycarbonyl)-β-pyridin-4-yl-L-phenylalaninamide] | 0.3
11 | COC(=O)N[C@@H](C(=O)Nc1ccccc1CC[C@@H]1CNC[C@@H](CSc2ccc(Cl)cc2)O1)[C@H](c1ccccc1)c1ccncc1 [Example 70, (βR)-N-(2-{2-[(2R,6S)-6-{[(4-chlorophenyl)sulfanyl]methyl}morpholin-2-yl]ethyl}phenyl)-Nα-(methoxycarbonyl)-β-pyridin-4-yl-D-phenylalaninamide] | 0.74
12 | COC(=O)N[C@H](C(=O)Nc1cccc(F)c1CC[C@@H]1CNC[C@@H](COc2ccc(C#N)cc2)O1)C(c1ccccc1)c1ccccc1 [Example 71, N-[2-(2-{(2R,6S)-6-[(4-cyanophenoxy)methyl]morpholin-2-yl}ethyl)-3-fluorophenyl]-Nα-(methoxycarbonyl)-β-phenyl-L-phenylalaninamide] | 7.4
13 | COC(=O)N[C@H](C(=O)Nc1cc(F)ccc1CC[C@@H]1CNC[C@@H](COc2ccc(C#N)cc2)O1)C(c1ccccc1)c1ccccc1 [Example 72, N-[2-(2-{(2R,6S)-6-[(4-cyanophenoxy)methyl]morpholin-2-yl}ethyl)-5-fluorophenyl]-Nα-(methoxycarbonyl)-β-phenyl-L-phenylalaninamide] | 23
14 | COC(=O)N[C@H](C(=O)Nc1cccc(F)c1CC[C@@H]1CNC[C@@H](CSc2ccc(Cl)cc2)O1)C(c1ccccc1)c1ccccc1 [Example 73, N-(2-{2-[(2R,6S)-6-{[(4-chlorophenyl)sulfanyl]methyl}morpholin-2-yl]ethyl}-3-fluorophenyl)-Nα-(methoxycarbonyl)-β-phenyl-L-phenylalaninamide] | 0.89
15 | COC(=O)N[C@H](C(=O)Nc1ccc(F)cc1CC[C@@H]1CNC[C@@H](COc2cccc(C#N)c2)O1)C(c1ccccc1)c1ccccc1 [Example 74, N-[2-(2-{(2R,6S)-6-[(3-cyanophenoxy)methyl]morpholin-2-yl}ethyl)-4-fluorophenyl]-Nα-(methoxycarbonyl)-β-phenyl-L-phenylalaninamide] | 39
16 | COC(=O)N[C@H](C(=O)Nc1ccc(F)cc1CC[C@@H]1CNC[C@@H](COc2ccc(C#N)cc2)O1)C(c1ccccc1)c1ccccc1 [Example 75, N-[2-(2-{(2R,6S)-6-[(4-cyanophenoxy)methyl]morpholin-2-yl}ethyl)-4-fluorophenyl]-Nα-(methoxycarbonyl)-β-phenyl-L-phenylalaninamide] | 46
17 | COC(=O)N[C@H](C(=O)Nc1c(F)cccc1CC[C@@H]1CNC[C@@H](COc2ccc(C#N)cc2)O1)C(c1ccccc1)c1ccccc1 [Example 76, N-[2-(2-{(2R,6S)-6-[(4-cyanophenoxy)methyl]morpholin-2-yl}ethyl)-6-fluorophenyl]-Nα-(methoxycarbonyl)-β-phenyl-L-phenylalaninamide] | 9.1
18 | COC(=O)N[C@H](C(=O)Nc1c(F)cccc1CC[C@@H]1CNC[C@@H](CSc2nc3cc(F)c(Cl)cc3[nH]2)O1)C(c1ccccc1)c1ccccc1 [Example 77, N-(2-{2-[(2R,6S)-6-{[(6-chloro-5-fluoro-1H-benzimidazol-2-yl)sulfanyl]methyl}morpholin-2-yl]ethyl}-6-fluorophenyl)-Nα-(methoxycarbonyl)-β-phenyl-L-phenylalaninamide] | 11
19 | COC(=O)N[C@H](C(=O)Nc1cc(F)cnc1CC[C@@H]1CNC[C@@H](COc2ccc(C#N)cc2)O1)C(c1ccccc1)c1ccccc1 [Example 78, N-[2-(2-{(2R,6S)-6-[(4-cyanophenoxy)methyl]morpholin-2-yl}ethyl)-5-fluoropyridin-3-yl]-Nα-(methoxycarbonyl)-β-phenyl-L-phenylalaninamide] | 150
20 | COC(=O)N[C@H](C(=O)Nc1cncnc1CC[C@@H]1CNC[C@@H](COc2ccc(C#N)cc2)O1)C(c1ccccc1)c1ccccc1 [Example 79, N-[4-(2-{(2R,6S)-6-[(4-cyanophenoxy)methyl]morpholin-2-yl}ethyl)pyrimidin-5-yl]-Nα-(methoxycarbonyl)-β-phenyl-L-phenylalaninamide] | 120
21 | COC(=O)N[C@H](C(=O)Nc1cccnc1CC[C@@H]1CNC[C@@H](CSc2ncccc2Cl)O1)C(c1ccccc1)c1ccccc1 [Example 80, N-(2-{2-[(2R,6S)-6-{[(3-chloropyridin-2-yl)sulfanyl]methyl}morpholin-2-yl]ethyl}pyridin-3-yl)-Nα-(methoxycarbonyl)-β-phenyl-L-phenylalaninamide] | 58
22 | COC(=O)N[C@H](C(=O)Nc1cnccc1CC[C@@H]1CNC[C@@H](COc2ccc(C#N)cc2)O1)C(c1ccccc1)c1ccccc1 [Example 81, N-[4-(2-{(2R,6S)-6-[(4-cyanophenoxy)methyl]morpholin-2-yl}ethyl)pyridin-3-yl]-Nα-(methoxycarbonyl)-β-phenyl-L-phenylalaninamide] | 53
23 | COC(=O)N[C@H](C(=O)Nc1cncc(F)c1CC[C@@H]1CNC[C@@H](COc2ccc(C#N)cc2)O1)C(c1ccccc1)c1ccccc1 [Example 82, Methyl[(1S)-2-{[4-(2-{(2R,6S)-6-[(4-cyanophenoxy)methyl]morpholin-2-yl}ethyl)-5-fluoropyridin-3-yl]amino}-1-(diphenylmethyl)-2-oxoethyl]carbamate] | 9.8
24 | COC(=O)N[C@H](C(=O)Nc1nccnc1CC[C@@H]1CNC[C@@H](CSc2ccc(Cl)cc2)O1)C(c1ccccc1)c1ccccc1 [Example 83, methyl N-[(1S)-1-benzhydryl-2-[[3-[2-[(2R,6S)-6-[(4-chlorophenyl)sulfanylmethyl]morpholin-2-yl]ethyl]pyrazin-2-yl]amino]-2-oxo-ethyl]carbamate] | 27
25 | COC(=O)N[C@H](C(=O)Nc1nccnc1CC[C@@H]1CNC[C@@H](COc2ccc(C#N)cc2)O1)C(c1ccccc1)c1ccccc1 [Example 84, methyl N-[(1S)-1-benzhydryl-2-[[3-[2-[(2R,6S)-6-[(4-cyanophenoxy)methyl]morpholin-2-yl]ethyl]pyrazin-2-yl]amino]-2-oxo-ethyl]carbamate] | 430
